# Source: patent US20250360109A1, “COMPOSITIONS AND METHODS FOR TREATING DEPRESSION IN FEMALES” (priority 2022, published 2025)
# How the values were obtained:
# Assay type in all cases: in vivo, human
# [1] = system: adult subjects with major depressive disorder (MDD); test: Phase 2 placebo-controlled study in MDD, Quick Inventory of Depressive Symptomology-Self Report (QIDS-SR); details: mITT; for Change from Baseline, QIDS Total at Week 2, LSM Difference (95% CI) / Change from Baseline, QIDS Total at Week 4, LSM Difference (95% CI): 20 mg/day vs Placebo; for Change from Baseline, QIDS Total at Week 2, Mean (SD) / Change from Baseline, QIDS Total at Week 2, Median / Change from Baseline, QIDS Total at Week 4, Mean (SD) / Change from Baseline, QIDS Total at Week 4, Median / QIDS Total at Week 2, Mean (SD) / QIDS Total at Week 2, Median / QIDS Total at Week 4, Mean (SD) / QIDS Total at Week 4, Median: 20 mg/day
# Protocol: (§1) A Phase 2, multicenter, double-blind, randomized, placebo-controlled study of the safety and efficacy of SP-624 in the treatment of adult subjects with major depressive disorder (MDD) as defined by the Diagnostic and Statistical Manual of Mental Disorders, Fifth Edition (DSM-5) was carried out. Following the successful completion of a Screening Phase, subjects were randomized to one of two treatment groups in a 1:1 ratio and received Compound 1 (SP-624) or placebo over a treatment period of four weeks (Treatment Group #1: SP-624 20 mg/day; Treatment Group #2: Placebo).
# (§2) Prior to initiating the 4-week treatment period, subjects completed a Screening/Baseline period of up to 28 days, during which time all screening assessments were performed, and any current depression medications discontinued. All screening assessments were completed before discontinuing any current depression medications. Subjects returned for a Baseline Visit to complete efficacy and safety assessments. During the treatment period, subjects returned to the investigative site to complete efficacy and safety assessments at the end of Weeks 1, 2, 3, and 4. After the final dose of study drug, subjects completed a follow-up period of two weeks and returned at the end of Weeks 5 and 6. Subjects may be treated with anti-depressant medications according to physician recommendations after completion of the Week 5 Visit.
# (§3) Each dose of Compound 1 was supplied as two capsules, each containing 10 mg of active pharmaceutical ingredient (API). Matching placebo capsules identical in shape and color to the active capsules were used.
# (§4) Secondary efficacy endpoints included: • Change from Baseline to Weeks 1, 2, and 3 in MADRS total score, • Change from Baseline to Weeks 1, 2, 3, and 4 in Clinical Global Impression-Severity (CGI-S) total score, • Change from Baseline to Week 5 and change from Week 4 to Week 5 in MADRS total score and CGI-S total score, • Change from Baseline to Week 2 and Week 4 in the 17-item Hamilton Depression Rating Scale (HAM D-17) total score, • Change from Baseline to Week 2 and Week 4 in the Sheehan Disability Scale (SDS), • Change from Baseline to Week 2 and Week 4 in the Quick Inventory of Depressive Symptomology-Self Report (QIDS-SR), and • Change from Baseline to Week 2 and Week 4 in the Quality of Life Enjoyment and Satisfaction Questionnaire-Short Form (Q-LES-Q-SF).
# [2] = system: adult subjects with major depressive disorder (MDD); test: Phase 2 placebo-controlled study in MDD, Sheehan Disability Scale (SDS); details: mITT; for Change from Baseline, SDS Total at Week 2, LSM Difference (95% CI) / Change from Baseline, SDS Total at Week 4, LSM Difference (95% CI): 20 mg/day vs Placebo; for Change from Baseline, SDS Total at Week 2, Mean (SD) / Change from Baseline, SDS Total at Week 2, Median / Change from Baseline, SDS Total at Week 4, Mean (SD) / Change from Baseline, SDS Total at Week 4, Median / SDS Total at Week 2, Mean (SD) / SDS Total at Week 2, Median / SDS Total at Week 4, Mean (SD) / SDS Total at Week 4, Median: 20 mg/day
# Protocol: as §1, §2, §3, §4
# [3] = system: adult subjects with major depressive disorder (MDD); test: Phase 2 placebo-controlled study in MDD, 17-item Hamilton Depression Rating Scale (HAM D-17) total score; details: Female, mITT
# Protocol: as §1, §2, §3, §4
structure (smiles),measurement,setting,value
"COC1=CC(=O)C[C@@H](C)[C@]12Oc1c(Cl)c(-c3nnc(C)o3)cc(OC)c1C2=O [SP-624, (2S,6′R)-7-Chloro-2′,4-dimethoxy-6′-methyl-6-(5-methyl-1,3,4-oxadiazol-2-yl)-3H-spiro[1-benzofuran-2,1′-cyclohex [2]ene]-3,4′-dione]","Change from Baseline, QIDS Total at Week 2, LSM Difference (95% CI)",[1]; Female,"−1.1 (−2.4, 0.3)"
same,"Change from Baseline, QIDS Total at Week 4, LSM Difference (95% CI)",[1]; Female,"−2.0 (−3.3, −0.6)"
same,"Change from Baseline, QIDS Total at Week 2, Mean (SD)",[1]; Female,−3.9 (4.37)
same,"Change from Baseline, QIDS Total at Week 2, Median",[1]; Female,−3
same,"Change from Baseline, QIDS Total at Week 4, Mean (SD)",[1]; Female,−5.7 (4.76)
same,"Change from Baseline, QIDS Total at Week 4, Median",[1]; Female,−5
same,"QIDS Total at Week 2, Mean (SD)",[1]; Female,11.7 (4.87)
same,"QIDS Total at Week 2, Median",[1]; Female,12
same,"QIDS Total at Week 4, Mean (SD)",[1]; Female,10.2 (4.69)
same,"QIDS Total at Week 4, Median",[1]; Female,10
same,"Change from Baseline, QIDS Total at Week 2, LSM Difference (95% CI)",[1]; Male,"1.2 (−0.9, 3.2)"
same,"Change from Baseline, QIDS Total at Week 4, LSM Difference (95% CI)",[1]; Male,"1.1 (−0.8, 3.0)"
same,"Change from Baseline, QIDS Total at Week 2, Mean (SD)",[1]; Male,−2.1 (5.50)
same,"Change from Baseline, QIDS Total at Week 2, Median",[1]; Male,−2
same,"Change from Baseline, QIDS Total at Week 4, Mean (SD)",[1]; Male,−3.3 (4.46)
same,"Change from Baseline, QIDS Total at Week 4, Median",[1]; Male,−4
same,"QIDS Total at Week 2, Mean (SD)",[1]; Male,11.7 (5.27)
same,"QIDS Total at Week 2, Median",[1]; Male,12
same,"QIDS Total at Week 4, Mean (SD)",[1]; Male,10.4 (4.55)
same,"QIDS Total at Week 4, Median",[1]; Male,11
same,"Change from Baseline, SDS Total at Week 2, LSM Difference (95% CI)",[2]; Female,"−1.7 (−3.3, −0.1)"
same,"Change from Baseline, SDS Total at Week 4, LSM Difference (95% CI)",[2]; Female,"−2.0 (−3.8, −0.2)"
same,"Change from Baseline, SDS Total at Week 2, Mean (SD)",[2]; Female,−4.7 (5.74)
same,"Change from Baseline, SDS Total at Week 2, Median",[2]; Female,−4
same,"Change from Baseline, SDS Total at Week 4, Mean (SD)",[2]; Female,−5.8 (6.70)
same,"Change from Baseline, SDS Total at Week 4, Median",[2]; Female,−5
same,"SDS Total at Week 2, Mean (SD)",[2]; Female,11.8 (6.24)
same,"SDS Total at Week 2, Median",[2]; Female,11
same,"SDS Total at Week 4, Mean (SD)",[2]; Female,11.2 (6.98)
same,"SDS Total at Week 4, Median",[2]; Female,11
same,"Change from Baseline, SDS Total at Week 2, LSM Difference (95% CI)",[2]; Male,"2.6 (0.3, 4.8)"
same,"Change from Baseline, SDS Total at Week 4, LSM Difference (95% CI)",[2]; Male,"1.3 (−1.3, 3.8)"
same,"Change from Baseline, SDS Total at Week 2, Mean (SD)",[2]; Male,−2.4 (5.27)
same,"Change from Baseline, SDS Total at Week 2, Median",[2]; Male,−2
same,"Change from Baseline, SDS Total at Week 4, Mean (SD)",[2]; Male,−5.0 (6.14)
same,"Change from Baseline, SDS Total at Week 4, Median",[2]; Male,−4
same,"SDS Total at Week 2, Mean (SD)",[2]; Male,12.8 (5.99)
same,"SDS Total at Week 2, Median",[2]; Male,13
same,"SDS Total at Week 4, Mean (SD)",[2]; Male,10.5 (6.39)
same,"SDS Total at Week 4, Median",[2]; Male,10
same,"Change from Baseline, HAM-D-17 Total at Week 2, LSM Difference (95% CI)",[3]; 20 mg/day vs Placebo,"−0.9 (−2.6, 0.8)"
same,"Change from Baseline, HAM-D-17 Total at Week 4, LSM Difference (95% CI)",[3]; 20 mg/day vs Placebo,"−2.3 (−4.2, −0.4)"
same,"Change from Baseline, HAM-D-17 Total at Week 2, Mean (SD)",[3]; 20 mg/day,−6.4 (5.99)
same,"Change from Baseline, HAM-D-17 Total at Week 2, Median",[3]; 20 mg/day,−5
same,"Change from Baseline, HAM-D-17 Total at Week 4, Mean (SD)",[3]; 20 mg/day,−8.8 (6.82)
same,"Change from Baseline, HAM-D-17 Total at Week 4, Median",[3]; 20 mg/day,−8
same,"HAM-D-17 Total at Week 2, Mean (SD)",[3]; 20 mg/day,16.6 (6.25)
same,"HAM-D-17 Total at Week 2, Median",[3]; 20 mg/day,17
same,"HAM-D-17 Total at Week 4, Mean (SD)",[3]; 20 mg/day,14.6 (7.03)
same,"HAM-D-17 Total at Week 4, Median",[3]; 20 mg/day,15
